Assays:
[1] = system: bovine brain capillary endothelial cells; test: Leptin transcytosis in blood-brain barrier in vitro model; assay type: cell-based; settings: for leptin transport / transcytosis: 10 ng/mL 125I-leptin + 50 μg/mL peptide
Method: Cells were incubated with ^125I-leptin alone (10,000 dpm/ng) (closed squares), with 1 μg/mL unlabelled leptin (triangles), 50 μg/mL MP (circles), 50 μg/mL HP (open squares), or 2 mg/mL lactoferrin (asterisks).
Human leptin transport through the blood-brain barrier (BBB) is studied using an in vitro model (Dehouck, et al J Neurochem 54:1798-801, 1990 hereby incorporated herein by reference in its entirety including any figures, tables, or drawings). This model closely mimics the in vivo situation with regard to the selective passage of nutrients and drugs through the cerebro-vascular endothelium. […] Briefly, this model consists of a co-culture of bovine brain capillary endothelial cells (ECs) and rat astrocytes (FIG. 31). The astrocytes are seeded on the plastic of a six-well dish and grown for 3 weeks. A collagen-coated filter is then set in each dish and bovine ECs are plated on the upper-side of the filter. ECs form a confluent monolayer in 5 days and they are used for experiments after 16 days of coculture with astrocytes.
Leptin transcytosis: Experiments were performed on brain capillary endothelial cells in coculture with astrocytes for 16 days. On the day of the experiment, ECs were transferred to a clean 6-well plate containing 2 mL of Ringer-Hepes buffer (see, FIG. 32). At time 0, 1 mL Ringer Hepes containing ^125I-leptin was placed in the upper compartment. After 30, 60, 120, or 180 min incubation at 37° C. on a rocking platform, the insert was transferred into another well of a six-well plate to minimize the possible passage of substances from the lower to the upper compartment. At the end of the experiment, the amount of radioactivity of each well was counted. […]
The transport of molecules through the endothelial monolayer was determined for each time point as % passage: % passage of radiolabelled molecule through the endothelium: dpm found in the lower compartment at a time point divided by the initial dpm found in the upper compartment: % transport at 30 min=(lower dpm t30/upper dpm)*100.

LSR = LSR activity (oleate-induced 125I-LDL binding, uptake, degradation) in PLC cells; assay type: cell-based, human; settings: for LSR activity in human cells: 22-mer peptide, increasing concentrations
Method: FIGS. 5A, 5B, 5C, and 5D show the stimulatory effect of leptin on LSR activity in PLC and suppression of this effect by 81B antibody. For FIGS. 5A, 5B, and 5C, cultured PLC cells were incubated at 37° C. for 30 min with increasing concentrations of human recombinant leptin in Buffer A. After this, 0.5 mM oleate and 20 μg/mL ^125I-LDL were added, and cells were further incubated at 37° C. for 2 h. Cells were washed, and the amount of oleate-induced ^125I-LDL bound (5A), internalized (5B) and degraded (5C) were measured. For FIG. 5D, PLC cells were incubated at room temperature for 30 min with 200 μg/mL anti-LSR peptide 81B or 170 antibody, followed by incubation at 37° C. for 30 min without (open bar) or with (hatched bar) 10 ng/mL human leptin. Oleate (0.5 mM) and ^125I-LDL (20 μg/mL) were added, and the monolayers were left at 37° C. for 3 h. After washing, the amount of ^125I-LDL binding was determined, and is shown here as the mean±SD of triplicate determinations.
FIGS. 8A and 8B show the effect of mouse or human leptin on LSR activity in primary cultures of rat hepatocytes or a human liver cell line (PLC). Primary cultured rat hepatocytes were obtained commercially (In Vitro Tech). The PLC cell line was obtained from ATCC repository and maintained in culture. Rat hepatocytes 72 h after plating (8A) or confluent monolayers of PLC (8B) were incubated 30 min at 37° C. with 0 (closed bar) or 10 ng/mL of human (open bar) or mouse (hatched bar) recombinant leptin. Following this, 0.5 mM oleate and 20 μg/mL ^125I-LDL were added and the cells were further incubated for 2 h at 37° C. […] The cells were washed, and the amount of oleate-induced ^125I-LDL bound and degraded was measured as described previously (Bihain, B. E., and Yen, F. T. (1992). Free fatty acids activate a high-affinity saturable pathway for degradation of low density lipoproteins infibroblasts from a subject homozygous for familial hypercholesterolemia. Biochemistry 31, 4628-4636.
FIGS. 35A and 35B show graphs of LSR activity and mRNA expression measured in PLC cells preincubated 24 h with leptin. In FIG. 35A, PLC monolayers were incubated 24 h at 37° C. with (o) or without (n) 200 ng/mL human recombinant leptin. After washing with PBS, cells were incubated 30 min at 37° C. with increasing concentrations of human leptin, followed by a 2 h incubation at 37° C. with 0.8 mM oleate and 20 μg/mL ^125I-LDL. Cells were washed, and the amount of oleate-induced ^125I-LDL binding was measured as described previously. Results are shown as the mean of triplicate determinations. In FIG. 35B, PLC monolayers were incubated 24 h at 37° C. with 0, 200, or 400 ng/mL human recombinant leptin. After washing with PBS, the cells were harvested. Total RNA was prepared from the cell pellets, and Northerns were performed to detect LSR mRNA, using GAPDH probe as loading control as described previously. Northern blots were scanned on the Phosphorimager (Molecular Dynamics, Sunnyvale, Calif.). Densitometric analysis of the images was performed using the software ImageQuant. Results are shown as the amount of LSR signal relative to that of GAPDH (mean±SD, n=3/condition). […]

Substance | leptin transport / transcytosis [1] | LSR activity in human cells (LSR; PLC cells) | reduction of the amount of 125I-leptin transported ([1]; 10 ng/mL 125I-leptin + 1 μg/mL cold leptin) | leptin concentration at which the effect on LSR activity was observed (LSR; PLC cells, human recombinant leptin) [ng/mL] | oleate-induced LSR binding uptake and degradation of 125I-LDL (LSR; PLC cells, human recombinant leptin, 30 min preincubation, 0.5 mM oleate) | leptin concentration needed for maximal stimulatory effect (LSR; PLC preincubated 24 h with 200 ng/mL leptin) [ng/mL] | reduction of the maximal stimulatory effect on oleate-induced 125I-LDL binding (LSR; PLC preincubated 24 h with 200 ng/mL leptin, then short incubation with leptin)
CHLPWASGLETLDSLGGVLEAS (listed as Homo sapiens) [human peptide, human leptin fragment residues 117-138, 22-mer] | significant increase | agonistic | – | – | – | – | –
leptin: plasma protein of 16 kDa produced by adipocytes; recombinant human or mouse leptin, species depends on the experiment | – | – | approximately 30% | ≥ 10 | directly increased | 100 | about 50%
CSLPQTSGLQKPESLDGVLEAS (listed as Mus musculus) [mouse peptide, mouse leptin fragment residues 117-138, 22-mer] | no significant effect | antagonist | – | – | – | – | –
